{
  "source": "patent US20060094695A1",
  "about": "“Hypoestoxides, derivatives and agonists thereof for use in the prophylaxis and treatment of obesity” (Paraquest, Inc., priority 2004, published 2006)",
  "key": {"[1]": {"system": "C57BL/6J-Lep^ob mice", "test": "Prevention of Obesity in Mice (Table 1)", "assay_type": "in vivo", "details": "4-week-old female mice, in g", "procedure": "The ability of hypoestoxides and hypoestes rosea dried leaf powder to prevent obesity was studied. Hypoestoxide and hypoestes rosea dried leaf powder was administered to C57BL/6J-Lep^ob mice. The mice are homozygous for the obese spontaneous mutation and are first recognizable as such at approximately 4 weeks of age. At 4 weeks, the mice weigh 20-25 grams, and may reach three to four times the weight of wild-type mice. Three 4-week-old female mice were placed in each of four treatment conditions, for a total of twelve mice in the study: (i) control; (ii) hypoestoxide was administered orally at a dose of 10 mg/kg; (iii) hypoestoxide was administered orally at a dose of 100 mg/kg; or (iv) hypoestes dried leaf powder was administered orally at a dose of 100 mg/kg. Treatments were administered once a day and the study continued for 21 days."}, "[2]": {"system": "C57BL/6J-Lep^ob mice", "test": "Treatment of Obesity in Mice (Table 2)", "assay_type": "in vivo", "details": "10 mg/kg orally once a day for 50 days, approx. 4 months old, one mouse", "procedure": "Treatment of obesity with hypoestoxide and hypoestes rosea dried leaf powder was also studied. Hypoestoxide and hypoestes rosea dried leaf powder was administered to C57BL/6J-Lep^ob mice. The mice were treated at approximately 4 months of age at a weight of approximately 50 grams. One mouse was placed in each of three treatment conditions: (i) control; (ii) hypoestoxide was administered orally at a dose of 10 mg/kg; or (iii) hypoestes dried leaf powder was administered orally at a dose of 100 mg/kg. Treatments were administered once a day, with hypoestoxide treatment lasting 50 days and hypoestes dried leaf powder treatment lasting 21 days."}},
  "data": [
    {"smiles": "C=C1C(=O)C[C@H]2C[C@@H]3O[C@@]3(C)CC[C@@H]3O[C@@]3(C)C[C@@H](OC(C)=O)[C@H]1C2(C)C", "note": "[Hypoestoxide, hypoestoxide]", "values": [
      {"measurement": "weight of mice, Prevention of Obesity in Mice", "setting": "[1]; 10 mg/kg orally once a day for 21 days", "result": "41.6 ± 2.0"},
      {"measurement": "weight of mice, Prevention of Obesity in Mice", "setting": "[1]; 100 mg/kg orally once a day for 21 days", "result": "40.0 ± 1.5"},
      {"measurement": "weight of mice, Prevention of Obesity in Mice", "setting": "[1]; day 7, 10 mg/kg orally once a day for 21 days", "result": "19.6 ± 2.0"},
      {"measurement": "weight of mice, Prevention of Obesity in Mice", "setting": "[1]; day 7, 100 mg/kg orally once a day for 21 days", "result": "20.9 ± 1.2"},
      {"measurement": "weight of mice, Prevention of Obesity in Mice", "setting": "[1]; day 14, 10 mg/kg orally once a day for 21 days", "result": "25.4 ± 1.6"},
      {"measurement": "weight of mice, Prevention of Obesity in Mice", "setting": "[1]; day 14, 100 mg/kg orally once a day for 21 days", "result": "23.8 ± 0.6"},
      {"measurement": "weight of mice, Prevention of Obesity in Mice", "setting": "[1]; day 21, 10 mg/kg orally once a day for 21 days", "result": "27.5 ± 1.5"},
      {"measurement": "weight of mice, Prevention of Obesity in Mice", "setting": "[1]; day 21, 100 mg/kg orally once a day for 21 days", "result": "27.0 ± 0.8"},
      {"measurement": "weight of mice, Prevention of Obesity in Mice", "setting": "[1]; day 28, 10 mg/kg orally once a day for 21 days", "result": "28.8 ± 2.3"},
      {"measurement": "weight of mice, Prevention of Obesity in Mice", "setting": "[1]; day 28, 100 mg/kg orally once a day for 21 days", "result": "26.4 ± 2.2"},
      {"measurement": "weight of mice, Prevention of Obesity in Mice", "setting": "[1]; day 35, 10 mg/kg orally once a day for 21 days", "result": "30.3 ± 3.2"},
      {"measurement": "weight of mice, Prevention of Obesity in Mice", "setting": "[1]; day 35, 100 mg/kg orally once a day for 21 days", "result": "29.0 ± 2.9"},
      {"measurement": "weight of mice, Prevention of Obesity in Mice", "setting": "[1]; day −1 (before treatment), group 10 mg/kg orally once a day for 21 days", "result": "21.0 ± 1.4"},
      {"measurement": "weight of mice, Prevention of Obesity in Mice", "setting": "[1]; day −1 (before treatment), group 100 mg/kg orally once a day for 21 days", "result": "24.3 ± 1.1"},
      {"measurement": "weight of mouse, Treatment of Obesity in Mice", "setting": "[2]; day 7", "result": 53, "unit": "g"},
      {"measurement": "weight of mouse, Treatment of Obesity in Mice", "setting": "[2]; day 14", "result": 51.5, "unit": "g"},
      {"measurement": "weight of mouse, Treatment of Obesity in Mice", "setting": "[2]; day 21", "result": 51, "unit": "g"},
      {"measurement": "weight of mouse, Treatment of Obesity in Mice", "setting": "[2]; day 28", "result": 50.4, "unit": "g"},
      {"measurement": "weight of mouse, Treatment of Obesity in Mice", "setting": "[2]; day 35", "result": 50, "unit": "g"},
      {"measurement": "weight of mouse, Treatment of Obesity in Mice", "setting": "[2]; day 160", "result": 69.8, "unit": "g"},
      {"measurement": "weight of mouse, Treatment of Obesity in Mice", "setting": "[2]; day −1 (before treatment)", "result": 53, "unit": "g"}
    ]}
  ]
}
